SMILES strings stand for the structures.

Test [1] deals with Mycobacterium tuberculosis. As to the kind of experiment: Induction of resistance development in Mycobacterium tuberculosis harbouring katG F594C mutant assessed as resistance frequency at 5 times of MIC by visual analysis. The test is classed as functional.
The test system of test [2] is Mycobacterium tuberculosis. As to the kind of experiment: Induction of resistance development in Mycobacterium tuberculosis harbouring atpE gene assessed as resistance frequency at 5 times of MIC by visual analysis. The class given is functional.

`C[C@]1(COc2ccc(N3CCC(Oc4ccc(OC(F)(F)F)cc4)CC3)cc2)Cn2cc([N+](=O)[O-])nc2O1`: the Activity in test [1] worked out at 2%.
In the case of `COc1nc2ccc(Br)cc2cc1[C@@H](c1ccccc1)[C@@](O)(CCN(C)C)c1cccc2ccccc12` [BEDAQUILINE], the Activity came to 5.26% in test [1] and 17.3% in test [2].
